Assay results: US10011596B2, “2-amino-3-fluoro-3-(fluoromethyl)-6-methyl-6-phenyl-3,4,5,6-tetrahydropyridines as BACE1 inhibitors” (H. Lundbeck A/S, priority 2015, dated 2018)
Where two headings read alike, the source gives them in different places.

Columns and labels:
[1] = Bioanalysis of brain and plasma samples (exposure, UPLC-MS/MS); type: in vivo, rat; settings: male, Sprague Dawley, po, 3 hours post dose; for Kp at 3 h: brain/plasma, rat, read-out: Brain/Plasma ratio
Description: Young adult Male Sprague Dawley rats of approximately 250 g weight were purchased from Charles River and received 0-30 mg/kg of vehicle (10% HP betaCD+1M MeSO4, pH 2.5) or test compounds (dissolved in vehicle) only by oral gavage (p.o). The compounds are dosed at a volume of 5 ml/kg. Cohorts of 5-10 animals were established for each treatment condition.
At T=180 minutes after initial dosing the animals were stunned and decapitated with a guillotine. Trunk-blood was sampled in EDTA coated tubes after decapitation of the animal. The blood was centrifuged at 2200 G at 4° C. for 15 minutes and the plasma was collected and frozen at −80° C. The blood was aliquoted for Aβ ELISA and pharmacokinetic analysis. Immediately following sacrifice, the brain was extracted and split into 2 halves. The right hemibrains were snap frozen on dry ice and stored at −80° C. The left half was dissected; with the front forebrain taken for Aβ ELISA and the remainder used for DMPK analysis. These samples were also snap frozen on dry ice and stored at −80° C. until use for analysis.
TC (test compound) was determined in plasma and brain homogenate using UltraPerformance LC® (U PLC®) chromatography followed by tandem-MS (MS/MS) detection.
Brain homogenate was prepared by homogenizing the brain 1:4 (v/v) with water:2-propanol:DMSO (50:30:20 v/v/v) followed by centrifugation and collection of the supernatant. Calibration standards and QC samples were prepared using a Hamilton robot. 150 μL of ISTD in acetonitrile (1 ng/mL ISTD) was added to 25 μL of calibration standards, QC samples and test samples (plasma and brain homogenate) using a Biomek robot. After centrifugation (6200 g, 4° C., 20 min) 100 μL supernatant from each sample was transferred to a new plate and mixed with 100 μL water with 0.1% formic acid using a Biomek robot (method file InVivo transfer). After a quick centrifugation (6200 g, 4° C., 5 min) the samples were placed in the auto-sampler.
MS/MS detection was done with an Applied Biosystems Sciex API 4000 instrument in positive-ion electrospray ionisation mode. TC and ISDD were detected at a parent>daughter mass to charge ratio (m/z). Nitrogen was used for the nebulizer and collision gases. The peak area correlated linearly with the plasma and brain concentration of the analytes in the range of 1.00-1000 ng/mL plasma and 5.00-5000 ng/g brain (corrected for dilution). If the plasma/brain sample drug concentration was above 1000 ng/mL or 5000 ng/g, the sample was diluted appropriately in blank plasma/blank brain homogenate before analysis.
Compound 1 was administered at doses of 10 mg/kg p.o. and 30 mg/kg p.o. and brain and plasma samples were collected at 3 hours post dose and the following exposures were measured as described above.

P-gp (MDR1) = assay: MDCK-MDR1 assay (permeability, efflux ratio); type: in vitro ADME; settings: dog
Description: The permeability of the test compounds was assessed in MDCK-MDR1 cells that were cultured to confluency (4-6 days) in a 96 transwell plate. Test compounds were diluted with the transport buffer (HBSS+1% BSA) to a concentration of 0.5 μM and applied to the apical or basolateral side of the cell monolayer. Permeation of the test compounds from A to B direction or B to A direction was determined in triplicate over a 60-minute incubation time at 37° C. and 5% CO2 with a relative humidity of 95%. Test compounds were quantified by LC-MS/MS analysis based on the peaks area ratios of analyte/IS in both the receiver and donor wells of the transwell plate.
The apparent permeability coefficient Papp (cm/s) was calculated using the equation: Papp=(dCr/dt)×Vr/(A×C0)
Where dCr/dt is the cumulative concentration of compound in the receiver chamber as a function of time (μM/s); Vr is the solution volume in the receiver chamber (0.05 mL on the apical side; 0.25 mL on the basolateral side); A is the surface area for the transport, i.e. 0.0804 cm^2 for the area of the monolayer; C0 is the initial concentration in the donor chamber (μM).

human BACE1 [2] = target: T1, human BACE1 (Homo sapiens, UniProt P56817); assay: BACE1 efficacy assay (FRET-based, commercial BACE1 kit); type: biochemical; set-up: purchased Life Technologies P2985; settings: test compound at 10 μM
T1 sequence (P56817 46-501): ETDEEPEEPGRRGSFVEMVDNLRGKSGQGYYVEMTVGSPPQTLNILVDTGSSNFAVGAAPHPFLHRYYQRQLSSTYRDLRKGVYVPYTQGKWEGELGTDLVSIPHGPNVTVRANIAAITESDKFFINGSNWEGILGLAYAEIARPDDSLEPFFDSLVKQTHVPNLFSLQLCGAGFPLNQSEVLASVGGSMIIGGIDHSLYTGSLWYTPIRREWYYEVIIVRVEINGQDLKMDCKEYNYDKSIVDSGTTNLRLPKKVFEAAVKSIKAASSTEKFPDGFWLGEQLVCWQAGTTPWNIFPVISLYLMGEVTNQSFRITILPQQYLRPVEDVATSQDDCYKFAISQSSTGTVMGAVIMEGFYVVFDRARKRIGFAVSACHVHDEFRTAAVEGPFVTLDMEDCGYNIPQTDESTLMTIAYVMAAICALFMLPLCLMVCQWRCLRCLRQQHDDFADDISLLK
Description: The efficacy assay was performed as a FRET-based assay using a commercially available BACE1 kit (Life Technologies, P2985). 2 μl test compound at 10 μM (final concentration) and 15 μl BACE1 enzyme from the kit (final concentration 3 nM) were preincubated for 15 minutes at room temperature before addition of 15 μl of substrate from the kit (250 nM final concentration) and incubated for additional 90 minutes at room temperature. The assay plate was subsequently read in a Pherastar (Ex540/Em590).

human BACE1 [3] = target: T1, human BACE1; assay: BACE1 binding assay (SPA-based, radioligand displacement); set-up: biotin (biotinylated form); made in house; host or cells: Freestyle HEK293 cells; settings: pH 4.5, 10 nM radioligand, 6 nM human BACE1, read-out: BACE1 binding affinity
Description: The binding assay was performed as SPA-based assay using a biotinylated form of human BACE1 recombinantly expressed and subsequently purified from Freestyle HEK293 cells. The binding assay was run in a 50 mM sodium acetate buffer, pH 4.5 containing 50 mM NaCl and 0.03% Tween-20 in white clear bottom 384 plates (Corning #3653). 10 nM (final concentration) radioligand ([^3H]-N-((1S,2R)-1-benzyl-3-cyclopropylamino-2-hydroxy-propyl)-5-(methanesulfonyl-methyl-amino)-N-((R)-1-phenyl-ethyl)-isophthalamide) (TRQ11569 purchased from GE Healthcare) was mixed with test compound at a given concentration, 6 nM (final concentration) human BACE1 and 25 μg Streptavidin coated PVT core SPA beads (RPNQ0007, GE Healthcare Life Sciences) in a total volume of 40 μl. Several concentrations of each test compound were tested in the assay for IC50 determination. The plates were incubated for one hour at room temperature and counted in a WaIlac Trilux counter. […] For each test compound, a IC50 value (the concentration mediating 50% inhibition of the specific binding of the radioligand) was determined from concentration-response curve and used to calculate the Ki from the equation Ki=IC50/(1+L/Kd), where L and Kd are the final concentration of the radioligand used in the assay and the dissociation constant of the radioligand, respectively. The Kd of the radioligand was determined from saturation binding experiments.

[4] = rat brain, 10 mg/kg p.o., read-out: Exp (ng/g), brain
[5] = rat brain, 30 mg/kg p.o., read-out: Exp (ng/g), brain
[6] = rat plasma, 10 mg/kg p.o., read-out: Exp (ng/g), plasma
[7] = rat plasma, 30 mg/kg p.o., read-out: Exp (ng/g), plasma

Row | Compound | Kp at 3 h ([1]; 10 mg/kg p.o.) | Kp at 3 h ([1]; 30 mg/kg p.o.) | concentration at 3 h [1, 4] | concentration at 3 h [1, 5] | concentration at 3 h [1, 6] | concentration at 3 h [1, 7] | efflux ratio at 60 min, 0.5 µM (P-gp (MDR1)) | inhibition at 10 µM (human BACE1 [2]) | Ki (human BACE1 [3])
1 | C[C@@]1(c2cc(NC(=O)c3cnc(C(F)F)cn3)ccc2F)CC[C@@](F)(CF)C(N)=N1 [Compound 11] | 2.1 | 2.3 | 416 ng/g | 1350 ng/g | 195 ng/g | 590 ng/g | 1.89 | 103% | 55 nM
2 | COc1cnc(C(=O)Nc2ccc(F)c([C@]3(C)CC[C@@](F)(CF)C(N)=N3)c2)cn1 [Compound 5, N-(3-((2S,5S)-6-Amino-5-fluoro-5-(fluoromethyl)-2-methyl-2,3,4,5-tetrahydropyridin-2-yl)-4-fluorophenyl)-5-methoxypyrazine-2-carboxamide] | 1.95 | 2.74 | 536 ng/g | 1610 ng/g | 275 ng/g | 587 ng/g | 1.07 | 103% | 24 nM
3 | C[C@@]1(c2cc(NC(=O)c3ccc(F)cn3)ccc2F)CC[C@@](F)(CF)C(N)=N1 [Compound 13, N-(3-((2S,5S)-6-Amino-5-fluoro-5-(fluoromethyl)-2-methyl-2,3,4,5-tetrahydropyridin-2-yl)-4-fluorophenyl)-5-fluoropicolinamide] | 1.25 | 1.59 | 588 ng/g | 1590 ng/g | 469 ng/g | 1000 ng/g | 1.5 | 100% | 40 nM
